In patent US20240217968A1, “PHARMACEUTICAL COMPOUND” (DUKE STREET BIO LIMITED, priority 2021, published 2024):

biological target: T1, recombinant human Flag-tagged PARP7 (amino acids 456-657) (Homo sapiens, UniProt Q7Z3E1); test: PARP7 biochemical DELFIA assay (auto-MARylation); details: DELFIA readout, IC50 class
T1 construct: recombinant human Flag-tagged PARP7 (amino acids 456-657)
T1 sequence (Q7Z3E1 456-657): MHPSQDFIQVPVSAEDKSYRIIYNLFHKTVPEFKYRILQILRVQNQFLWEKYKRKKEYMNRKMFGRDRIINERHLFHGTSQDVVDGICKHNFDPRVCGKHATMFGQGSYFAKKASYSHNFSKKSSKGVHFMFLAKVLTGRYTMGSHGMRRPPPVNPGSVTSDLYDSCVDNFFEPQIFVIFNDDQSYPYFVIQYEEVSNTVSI
How it was run: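 Flag-PARP7 (456-657), 12.5-37.5 nM stock, captured on anti-FLAG wells, preincubated 30 min with compound, then auto-MARylated with biotin-NAD+ (15 μM stock) in HEPES pH 7.5/NaCl/DTT/BSA/Tween for 2-3 h at room temperature. NAD+ quench; Eu-streptavidin DELFIA read, Ex337/Em620 nm.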

Structure (SMILES)	IC50
N#Cc1ccc(OC2CCN(C(=O)CCOCCc3cccc4c(=O)[nH]ncc34)C2)nc1 (stereo not drawn) [Compound 116]	1000 to 10000 nM
CC(COCCC(=O)N1CCN(c2nc(C#N)co2)CC1)n1nc(C(F)(F)F)c2c(=O)[nH]ncc21 (single isomer, unassigned) [Compound 318]	100 to 1000 nM
O=C(COCCOc1cccc2c(=O)[nH]ncc12)N1CCN(c2ncc(C(F)(F)F)cn2)CC1 [Compound 3]	100 to 1000 nM
N#Cc1ccc(N2CCN(C(=O)c3cccc(Cn4ccc5c(=O)[nH]ncc54)c3)CC2)nc1 [Compound 9]	100 to 1000 nM
CS(=O)(=O)c1ccc(N2CCN(C(=O)CCOCCc3cccc4c(=O)[nH]ncc34)CC2)nc1 [Compound 113]	100 to 1000 nM
O=C(CCOCCc1cccc2c(=O)[nH]nnc12)N1CCN(c2ncc(C(F)(F)F)cn2)CC1 [Compound 52]	100 to 1000 nM
CC(COCCC(=O)N1CCN(c2nnc(C(F)(F)F)s2)CC1)n1nc(C(F)(F)F)c2c(=O)[nH]ncc21 (single isomer, unassigned) [Compound 291]	100 to 1000 nM
CN1CCN(CCOCCC(=O)N2CCN(c3ncc(C(F)(F)F)cn3)CC2)c2cn[nH]c(=O)c21 [Compound 55]	≤ 100 nM
O=C1NCCCc2c(CCOCCC(=O)N3CCN(c4ncc(C(F)(F)F)cn4)CC3)cccc21 [Compound 145]	1000 to 10000 nM
CC1CN(C(=O)CCOCCc2cccc3c(=O)[nH]ncc23)CCN1c1ncc(C(F)(F)F)cn1 (stereo not drawn) [Compound 90]	≤ 100 nM
O=C(CCOCCn1nc(C(F)F)c2c(=O)[nH]ncc21)N1CCN(c2ncc(C(F)(F)F)cn2)CC1 [Compound 236, 3-(difluoromethyl)-1-(2-(3-oxo-3-(4-(5-(trifluoromethyl)pyrimidin-2-yl)piperazin-1-yl)propoxy)ethyl)-1,5-dihydro-4H-pyrazolo[3,4-d]pyridazin-4-one]	≤ 100 nM
N#Cc1ccc(N2CCN(C(=O)c3ccc(Cc4cccc5c(=O)[nH]ncc45)cc3)CC2)nc1 [Compound 32]	1000 to 10000 nM
CC(COCCC(=O)N1CCN(c2ncc(C#N)cn2)CC1)n1nc(C(F)F)c2c(=O)[nH]ncc21 (single isomer, unassigned) [Compound 490]	≤ 100 nM
CC(CCOCC(=O)N1CCN(c2ncc(Cl)cn2)CC1)n1cc(C(F)(F)F)c2c(=O)[nH]ncc21 (single isomer, unassigned) [Compound 457]	≤ 100 nM
O=C(CCOCC(c1cccc2c(=O)[nH]ncc12)C(F)(F)F)N1CCN(c2ncc(C(F)(F)F)cn2)CC1 (single isomer, unassigned) [Compound 427]	100 to 1000 nM
Cn1c(N2CCN(C(=O)CCOCCn3cc(C(F)(F)F)c4c(=O)[nH]ncc43)CC2)nc2ccccc21 [Compound 381]	≤ 100 nM
Cc1nn(CCOCCC(=O)N2CCN(c3ncc(C(F)(F)F)cn3)C(C)C2)c2cn[nH]c(=O)c12 (stereo not drawn) [Compound 256]	≤ 100 nM
O=C(OCCCCc1cccc2c(=O)[nH]ncc12)N1CCN(c2ncc(C(F)(F)F)cn2)CC1 [Compound 165]	≤ 100 nM

Structure (SMILES)	IC50
N#Cc1ccc2oc(N3CCN(C(=O)CCOCCc4cccc5c(=O)[nH]ncc45)CC3)nc2c1 [Compound 208]	≤ 100 nM
CC(COCCC(=O)N1CCN(c2ccc(F)cn2)CC1)n1nc(C(F)(F)F)c2c(=O)[nH]ncc21 (stereo not drawn) [Compound 348]	≤ 100 nM
O=C(CCOCCn1ccc2c(=O)[nH]cnc21)N1CCN(c2ncc(C(F)(F)F)cn2)CC1 [Compound 53]	100 to 1000 nM
O=C(CCOCCn1cc(C(F)(F)F)c2c(=O)[nH]ncc21)N1CCN(c2nc3ccccc3o2)CC1 [Compound 379]	≤ 100 nM
O=C(OCC1CC1Cn1nc(C(F)(F)F)c2c(=O)[nH]ncc21)N1CCN(c2ncc(C(F)(F)F)cn2)CC1 (stereo not drawn) [Compound 493]	≤ 100 nM
O=C(CCOCCn1cc(C(F)F)c2c(=O)[nH]ncc21)N1CCN(c2ncc(C(F)(F)F)cn2)CC1 [Compound 198]	≤ 100 nM
CC(COCCC(=O)N1CCN(c2ncc(C#N)cn2)CC1)n1nc(C(F)F)c2c(=O)[nH]ncc21 (single isomer, unassigned) [Compound 491]	≤ 100 nM
O=C(CCOCCc1cccc2c(=O)[nH]ccc12)N1CCN(c2ncc(C(F)(F)F)cn2)CC1 [Compound 233]	≤ 100 nM
CC(COCCC(=O)N1CCN(c2ccc(C(F)(F)F)cn2)CC1)n1nc(C(F)(F)F)c2c(=O)[nH]ncc21 (stereo not drawn) [Compound 178]	≤ 100 nM
CC(COCCC(=O)N1CCN(c2ncc(F)cn2)CC1)n1nc(C(F)(F)F)c2c(=O)[nH]ncc21 (single isomer, unassigned) [Compound 248, 1-(1-(3-(4-(5-fluoropyrimidin-2-yl)piperazin-1-yl)-3-oxopropoxy)propan-2-yl)-3-(trifluoromethyl)-1,5-dihydro-4H-pyrazolo[3,4-d]pyridazin-4-one]	≤ 100 nM
COc1ccc(N2CCN(C(=O)CCOCC(C)n3nc(C(F)(F)F)c4c(=O)[nH]ncc43)CC2)nc1 (stereo not drawn) [Compound 307]	≤ 100 nM
Cc1c(C)n(C(C)COCCC(=O)N2CCN(c3ncc(C(F)(F)F)cn3)CC2)c2cn[nH]c(=O)c12 (single isomer, unassigned) [Compound 365]	≤ 100 nM
O=C(OCC1CC1Cn1nc(C(F)(F)F)c2c(=O)[nH]ncc21)N1CCN(c2ncc(C(F)(F)F)cn2)CC1 (stereo not drawn) [Compound 492]	≤ 100 nM
CC(CCOCC(=O)N1CCN(c2ncc(C(F)(F)F)cn2)CC1)n1nc(C(F)(F)F)c2c(=O)[nH]ncc21 (single isomer, unassigned) [Compound 328, 1-(4-(2-oxo-2-(4-(5-(trifluoromethyl)pyrimidin-2-yl)piperazin-1-yl)ethoxy)butan-2-yl)-3-(trifluoromethyl)-1,5-dihydro-4H-pyrazolo[3,4-d]pyridazin-4-one]	≤ 100 nM
CC(COCCC(=O)N1CCN(c2ccc(C#N)cn2)CC1)n1cc(C(F)F)c2c(=O)[nH]ncc21 (stereo not drawn) [Compound 449]	≤ 100 nM
CC(COCCC(=O)N1CCN(c2ncc(C(C)(C)C)cn2)CC1)n1cc(C(F)(F)F)c2c(=O)[nH]ncc21 (single isomer, unassigned) [Compound 499]	≤ 100 nM
O=C1NCCc2c(OCCOCC(=O)N3CCN(c4ncc(C(F)(F)F)cn4)CC3)cccc21 [Compound 22]	1000 to 10000 nM

The next lines start with the values.

IC50	Structure (SMILES)
≤ 100 nM	Cc1cn(C(C)COCCC(=O)N2CCN(c3ncc(C(F)(F)F)cn3)CC2)c2cn[nH]c(=O)c12 (single isomer, unassigned) [Compound 151]
≤ 100 nM	N#Cc1ccc(N2CCN(C(=O)CCOCCc3cc(F)cc4c(=O)[nH]ncc34)CC2)nc1 [Compound 81]
≤ 100 nM	CC(COCCC(=O)N1CCN(c2ncc(C(F)(F)F)cn2)CC1)N1CCCc2c1cn[nH]c2=O (stereo not drawn) [Compound 63]
≤ 100 nM	CC(COCCn1cc(C(F)(F)F)c2c(=O)[nH]ncc21)C(=O)N1CCN(c2ncc(C(F)(F)F)cn2)CC1 (single isomer, unassigned) [Compound 411]
≤ 100 nM	COc1cnc(N2CCN(C(=O)CCOCC(C)n3nc(C(F)(F)F)c4c(=O)[nH]ncc43)CC2)nc1 (single isomer, unassigned) [Compound 332]
≤ 100 nM	CC(COCCC(=O)N1CCN(c2ncc(C#N)o2)CC1)n1nc(C(F)(F)F)c2c(=O)[nH]ncc21 (stereo not drawn) [Compound 330]
≤ 100 nM	CC(COCCC(=O)N1CCN(c2ncc(Cl)cn2)CC1)n1nc(C(F)(F)F)c2c(=O)[nH]ncc21 (single isomer, unassigned) [Compound 185]
≤ 100 nM	CC(CCOCC(=O)N1CCN(c2ccc(C#N)cn2)CC1)n1nc(C(F)(F)F)c2c(=O)[nH]ncc21 (single isomer, unassigned) [Compound 466]
≤ 100 nM	CC1CN(C(=O)CCOCCn2ncc3c(=O)[nH]ncc32)CCN1c1ncc(C(F)(F)F)cn1 (stereo not drawn) [Compound 137]
≤ 100 nM	N#Cc1nn(CCOCCC(=O)N2CCN(c3ncc(C(F)(F)F)cn3)CC2)c2cn[nH]c(=O)c12 [Compound 428]
≤ 100 nM	O=C(CCOCCc1cccc2c(=O)[nH]ncc12)N1CCN(c2nc3ccc(F)cc3o2)CC1 [Compound 180]
≤ 100 nM	CCC(COCCC(=O)N1CCN(c2ncc(C(F)(F)F)cn2)CC1)n1cc(C(F)(F)F)c2c(=O)[nH]ncc21 (single isomer, unassigned) [Compound 338]
≤ 100 nM	CC(COCCC(=O)N1CCN(c2cnc(C(F)F)cn2)CC1)n1nc(C(F)(F)F)c2c(=O)[nH]ncc21 (single isomer, unassigned) [Compound 324]
≤ 100 nM	CC(COCC(=O)N(C)C1CCN(c2ncc(C(F)(F)F)cn2)CC1)n1cc(C(F)(F)F)c2c(=O)[nH]ncc21 (stereo not drawn) [Compound 463]
≤ 100 nM	CC1Cc2c(cn[nH]c2=O)N(CCOCCC(=O)N2CCN(c3ncc(C(F)(F)F)cn3)CC2)C1 (single isomer, unassigned) [Compound 64, 3-methyl-1-(2-(3-oxo-3-(4-(5-(trifluoromethyl)pyrimidin-2-yl)piperazin-1-yl)propoxy)ethyl)-2,3,4,6-tetrahydropyrido[2,3-d]pyridazin-5(1H)-one]
≤ 100 nM	CC(COCCC(=O)N1CCN(c2ncc(C#N)cn2)CC1)c1ccc(Cl)c2c(=O)[nH]ncc12 (stereo not drawn) [Compound 415]
≤ 100 nM	CC(COCC(=O)N(C)C1CCN(c2ncc(C(F)(F)F)cn2)CC1)n1nc(C(F)(F)F)c2c(=O)[nH]ncc21 (single isomer, unassigned) [Compound 461, N-methyl-2-(2-(4-oxo-3-(trifluoromethyl)-4,5-dihydro-1H-pyrazolo[3,4-d]pyridazin-1-yl)propoxy)-N-(1-(5-(trifluoromethyl)pyrimidin-2-yl)piperidin-4-yl) acetamide]
≤ 100 nM	O=C(CCOCCn1nc(C(F)(F)F)c2c(=O)[nH]ncc21)N1CCN(c2nnc(C(F)(F)F)o2)CC1 [Compound 434]
≤ 100 nM	O=C(CCOCCn1cc(C(F)(F)F)c2c(=O)[nH]ncc21)N1CCN(c2nc(C(F)(F)F)cs2)CC1 [Compound 341]
